Here are results for four compounds from patent publication US20210137549A1, “DEVICE FOR CHEMICALLY ASSISTED DISSECTION” (AuXin Surgery SA, priority 2013, published 2021).

A short description of series [1]: Stability study of Mesna powder in the presence of riboflavin 5′-phosphate sodium (weight, dry oven). The series is classed as physicochemical. On the procedure: About 1.5 g of Mesna powder was accurately weighed, without or with 7 mg or 15 mg of riboflavin 5′-phosphate sodium, and placed in a dry oven at 20° C. for 1 month to test its stability (Table 6).
Series [2] is described as follows: Stability study of solutions comprising Mesna and riboflavin 5′-phosphate sodium (HPLC quantification of Mesna). As to conditions: 4° C. and 20° C. The series is classed as physicochemical. On the procedure:
A stability study was conducted for the purpose of evaluating a possible interaction between riboflavin 5′-phosphate sodium, a dye accepted for parenteral use in humans, and Mesna. […]
In order to validate the obtained data, a reference corresponding to a reconstituted solution of Mesna without riboflavin 5′-phosphate sodium was analyzed at the same time as the samples comprising riboflavin 5′-phosphate sodium (Table 5).

The conditions of series [3]: rats, intraduodenal administration compared with i.v.; cited from earlier work.
The conditions of series [4]: cited from earlier work.

SMILES strings stand for the structures. Where two headings read alike, the source gives them in different places.

As for `O=S(=O)([O-])CCS.[Na+]` [1.5 g Mesna powder], the “W1 = weight after 1 month in dry oven at 20° C.” value in series [1] (after 1 month in dry oven at 20° C., ± standard deviation) was 4.807 ± 0.016 g. Further, in series [1] (before placement in dry oven, ± standard deviation), the “W0 = weight before placement in dry oven at 20° C.” value came to 4.907 ± 0.038 g.
As to `O=S(=O)([O-])CCS.[Na+]` [Mesna, sodium 2-mercaptoethanesulfonate], in series [2] (0.23 mg/mL and 0.50 mg/mL RF5′PNa, before the 24 h point), the “variations in Mesna content after addition of riboflavin 5′-phosphate sodium” value is listed as at most 1%. Moreover, the “stability of Mesna in dry form in the presence of riboflavin 5′-phosphate sodium (conclusion)” value in series [1] (dry form, 1 month at 20° C.) is given as “stable”.
`CN(C)c1ccc2nc3ccc(=[N+](C)C)cc-3sc2c1` [methylene blue]: the “tissue concentrations after intraduodenal versus i.v. administration” value in series [3] was “higher concentrations in intestinal wall and liver but lower concentrations in whole blood and brain”. The “effect of co-administration of mesna on pharmacokinetics” value in series [4] (100 mg methylene blue with and without mesna) is “did not alter the pharmacokinetics”. The “urinary excretion of methylene blue and its leucoform” value in series [4] (i.v. administration (second value of the pair)) was 28 % dose; in series [4] (oral administration (first value of the pair)), 18 % dose. In addition, the estimated terminal half-life in series [4] (whole blood, i.v. administration of 100 mg, seven volunteers) was 5.25 h. Moreover, the “area under the concentration-time curve” value in series [4] (whole blood, i.v. administration of 100 mg) is 137 nmol/min/mL; in series [4] (whole blood, oral administration of 100 mg), 9 nmol/min/mL.
Regarding `Cc1cc2nc3c(=O)[nH]c(=O)nc-3n(C[C@H](O)[C@H](O)[C@H](O)COP(=O)([O-])O)c2cc1C.[Na+]` [riboflavin 5′-phosphate sodium], in series [2] (phosphate buffer, 1 h and 24 h), the “interaction of riboflavin 5′-phosphate sodium with Mesna in solution (conclusion)” value was “does not interfere with or degrade Mesna”.
